How the values were obtained:
blackgrass [1] = assay: Test C postemergence; type: in vivo, Alopecurus myosuroides; conditions: 10 days
Procedure, shortened: (§1)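 Visual injury score, 0–100 (100 = complete control), taken 10 days after treatment relative to untreated controls. Pre: directed spray onto soil over sown seeds. Post: foliar spray at one- to two-leaf stage, 2–10 cm. Solvent/surfactant formulation; loam–sand soil; greenhouse.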

ducksalad = assay: Test D flooded paddy test; type: in vivo, Heteranthera limosa; conditions: 250 g ai/ha, applied to paddy water, visual rating after 13 to 14 days, scale 0 to 100 (0 no effect, 100 complete control)
Procedure, shortened: (§2)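 Seedlings reached the 2-leaf stage, then pots were flooded to 3 cm over the soil surface. Compound was applied into the water, depth was maintained, and plants stayed in the greenhouse 13 to 14 days before visual scoring (0–100) relative to controls.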

blackgrass [2] = assay: Test C preemergence; type: in vivo, Alopecurus myosuroides; conditions: 0 to 100 scale (0 no effect, 100 complete control); for Plant response rating, Blackgrass: Preemergence, 500 g ai/ha, visual rating after 10 days; for Blackgrass plant response rating: Test C, preemergence, 125 g ai/ha
Procedure, shortened: as §1

soybean [3] = assay: Test C postemergence; type: in vivo, Glycine max; conditions: 10 days
Procedure, shortened: as §1

wheat [4] = assay: Test C postemergence; type: in vivo, Triticum aestivum; conditions: 10 days
Procedure, shortened: as §1

ragweed [5] = assay: Test C postemergence; type: in vivo, Ambrosia artemisiifolia; conditions: 10 days
Procedure, shortened: as §1

green foxtail [6] = assay: Test C postemergence; type: in vivo, Setaria viridis; conditions: 10 days
Procedure, shortened: as §1

pigweed, palmer [7] = assay: Test C postemergence; type: in vivo, Amaranthus palmeri; conditions: 10 days
Procedure, shortened: as §1

oat, wild [8] = assay: Test C preemergence; type: in vivo, Avena fatua; conditions: 0 to 100 scale (0 no effect, 100 complete control); for Oat, Wild plant response rating: preemergence
Procedure, shortened: as §1

ragweed [9] = assay: Test C preemergence; type: in vivo, Ambrosia artemisiifolia; conditions: 0 to 100 scale (0 no effect, 100 complete control); for Ragweed plant response rating: preemergence
Procedure, shortened: as §1

ryegrass, Italian [10] = assay: Test C postemergence; type: in vivo, Lolium multiflorum; conditions: 10 days
Procedure, shortened: as §1

pigweed, palmer [11] = assay: Test C preemergence; type: in vivo, Amaranthus palmeri; conditions: 0 to 100 scale (0 no effect, 100 complete control); for Pigweed, Palmer plant response rating: preemergence
Procedure, shortened: as §1

barnyardgrass [12] = assay: Test D flooded paddy test; type: in vivo, Echinochloa crus-galli; conditions: 250 g ai/ha, applied to paddy water, visual rating after 13 to 14 days, scale 0 to 100 (0 no effect, 100 complete control)
Procedure, shortened: as §2

barnyardgrass [13] = assay: Test C preemergence; type: in vivo, Echinochloa crusgalli; conditions: 0 to 100 scale (0 no effect, 100 complete control); for Plant response rating, Barnyardgrass: Preemergence, 500 g ai/ha, visual rating after 10 days; for Barnyardgrass plant response rating: Test C, preemergence, 125 g ai/ha
Procedure, shortened: as §1

kochia [14] = assay: Test C preemergence; type: in vivo, Bassia scoparia; conditions: 0 to 100 scale (0 no effect, 100 complete control); for Kochia plant response rating: preemergence
Procedure, shortened: as §1

corn [15] = assay: Test C preemergence; type: in vivo, Zea mays; conditions: 0 to 100 scale (0 no effect, 100 complete control); for Corn plant response rating: preemergence
Procedure, shortened: as §1

sedge, umbrella = assay: Test D flooded paddy test; type: in vivo, Cyperus difformis; conditions: 250 g ai/ha, applied to paddy water, visual rating after 13 to 14 days, scale 0 to 100 (0 no effect, 100 complete control)
Procedure, shortened: as §2

green foxtail [16] = assay: Test C preemergence; type: in vivo, Setaria viridis; conditions: 0 to 100 scale (0 no effect, 100 complete control); for Foxtail, Green plant response rating: preemergence
Procedure, shortened: as §1

wheat [17] = assay: Test C preemergence; type: in vivo, Triticum aestivum; conditions: 0 to 100 scale (0 no effect, 100 complete control); for Wheat plant response rating: preemergence
Procedure, shortened: as §1

horseweed = assay: Test C postemergence; type: in vivo, Erigeron canadensis; conditions: 10 days
Procedure, shortened: as §1

soybean [18] = assay: Test C preemergence; type: in vivo, Glycine max; conditions: 0 to 100 scale (0 no effect, 100 complete control); for Soybean plant response rating: preemergence
Procedure, shortened: as §1

oat, wild [19] = assay: Test C postemergence; type: in vivo, Avena fatua; conditions: 10 days
Procedure, shortened: as §1

galium = assay: Test C postemergence; type: in vivo, Galium aparine; conditions: 10 days
Procedure, shortened: as §1

kochia [20] = assay: Test C postemergence; type: in vivo, Bassia scoparia; conditions: 10 days
Procedure, shortened: as §1

ryegrass, Italian [21] = assay: Test C preemergence; type: in vivo, Lolium multiflorum; conditions: 0 to 100 scale (0 no effect, 100 complete control); for Ryegrass, Italian plant response rating: preemergence
Procedure, shortened: as §1

barnyardgrass [22] = assay: Test C postemergence; type: in vivo, Echinochloa crusgalli; conditions: 10 days
Procedure, shortened: as §1

rice = assay: Test D flooded paddy test; type: in vivo, Oryza sativa; conditions: 250 g ai/ha, applied to paddy water, visual rating after 13 to 14 days, scale 0 to 100 (0 no effect, 100 complete control)
Procedure, shortened: as §2

corn [23] = assay: Test C postemergence; type: in vivo, Zea mays; conditions: 10 days
Procedure, shortened: as §1

[24] = 125 g ai/ha, postemergence, 0 to 100 scale, 0 no effect, 100 complete control
[25] = Postemergence, 500 g ai/ha, visual 0 to 100 scale (0 no effect, 100 complete control)
[26] = Preemergence, 500 g ai/ha, visual rating after 10 days

In the case of `COc1ccc(-n2cnc(C(C)(C)O)n2)cc1C(=O)N1C[C@H](C)Oc2c(C)cccc21` [Compound 280], the “Plant response rating, Blackgrass” value (blackgrass [1]; [24]) is reported as 80, the “Plant response rating, Blackgrass” value (blackgrass [1]; [25]) is reported as 100 and the “Plant response rating, Ducksalad (Flood)” value (ducksalad) is reported as 70. The “Plant response rating, Blackgrass” value (blackgrass [2]) was 80, the “Blackgrass plant response rating” value (blackgrass [2]) was 70 and the “Plant response rating, Soybean” value (soybean [3]; [24]) was 100. The “Plant response rating, Wheat” value (wheat [4]; [24]) was 80, the “Plant response rating, Ragweed” value (ragweed [5]; [24]) was 70 and the “Plant response rating, Foxtail, Green” value (green foxtail [6]; [24]) was 60. The “Plant response rating, Foxtail, Green” value (green foxtail [6]; [25]) was 90, the “Plant response rating, Pigweed, Palmer” value (pigweed, palmer [7]; [24]) was 70 and the “Oat, Wild plant response rating” value (oat, wild [8]; 500 g ai/ha) was 90. For the same molecule, the “Oat, Wild plant response rating” value (oat, wild [8]; Test C, 125 g ai/ha) was 60, the “Ragweed plant response rating” value (ragweed [9]; 500 g ai/ha) was 100 and the “Ragweed plant response rating” value (ragweed [9]; Test C, 125 g ai/ha) was 90. The “Plant response rating, Ryegrass, Italian” value (ryegrass, Italian [10]; [24]) was 90, the “Pigweed, Palmer plant response rating” value (pigweed, palmer [11]; 500 g ai/ha) was 100 and the “Pigweed, Palmer plant response rating” value (pigweed, palmer [11]; Test C, 125 g ai/ha) was 100. The “Plant response rating, Barnyardgrass (Flood)” value (barnyardgrass [12]) was 25, the “Plant response rating, Barnyardgrass” value (barnyardgrass [13]) was 100 and the “Barnyardgrass plant response rating” value (barnyardgrass [13]) was 100. For the same molecule, the “Kochia plant response rating” value (kochia [14]; 500 g ai/ha) was 100, the “Kochia plant response rating” value (kochia [14]; Test C, 125 g ai/ha) was 90 and the “Corn plant response rating” value (corn [15]; 500 g ai/ha) was 60. For the same molecule, the “Corn plant response rating” value (corn [15]; Test C, 125 g ai/ha) was 30, the “Plant response rating, Sedge, Umbrella (Flood)” value (sedge, umbrella) was 95 and the “Foxtail, Green plant response rating” value (green foxtail [16]; 500 g ai/ha) was 100. The “Foxtail, Green plant response rating” value (green foxtail [16]; Test C, 125 g ai/ha) was 100, the “Wheat plant response rating” value (wheat [17]; 500 g ai/ha) was 90 and the “Wheat plant response rating” value (wheat [17]; Test C, 125 g ai/ha) was 70. For the same molecule, the “Plant response rating, Horseweed” value (horseweed; [24]) was 30, the “Plant response rating, Horseweed” value (horseweed; [25]) was 60 and the “Soybean plant response rating” value (soybean [18]; 500 g ai/ha) was 100. The “Soybean plant response rating” value (soybean [18]; Test C, 125 g ai/ha) was 90, the “Plant response rating, Oat, Wild” value (oat, wild [19]; [24]) was 80 and the “Plant response rating, Galium” value (galium; [24]) was 100. The “Plant response rating, Galium” value (galium; [25]) was 100, the “Plant response rating, Kochia” value (kochia [20]; [24]) was 60 and the “Ryegrass, Italian plant response rating” value (ryegrass, Italian [21]; 500 g ai/ha) was 90. The “Ryegrass, Italian plant response rating” value (ryegrass, Italian [21]; Test C, 125 g ai/ha) was 90, the “Plant response rating, Barnyardgrass” value (barnyardgrass [22]; [24]) was 50 and the “Plant response rating, Barnyardgrass” value (barnyardgrass [22]; [25]) was 90. For the same molecule, the “Plant response rating, Rice (Flood)” value (rice) was 20, the “Plant response rating, Corn” value (corn [23]; [24]) was 90 and the “Plant response rating, Corn” value (corn [23]; [25]) was 90.
With `CC(C)=C(C)c1ncn(-c2cccc(C(=O)N3C[C@H](C)Oc4c(C)cccc43)c2)n1` [Compound 262] the “Plant response rating, Blackgrass” value (blackgrass [1]; [25]) was 90, the “Plant response rating, Ducksalad (Flood)” value (ducksalad) was 0 and the “Plant response rating, Blackgrass” value (blackgrass [2]) was 90. The “Blackgrass plant response rating” value (blackgrass [2]) was 60, the “Plant response rating, Soybean” value (soybean [3]; [24]) was 100 and the “Plant response rating, Soybean” value (soybean [3]; [25]) was 100. The “Plant response rating, Wheat” value (wheat [4]; [24]) was 30, the “Plant response rating, Wheat” value (wheat [4]; [25]) was 50 and the “Plant response rating, Ragweed” value (ragweed [5]; [24]) was 40. For the same molecule, the “Plant response rating, Ragweed” value (ragweed [5]; [25]) was 70, the “Plant response rating, Foxtail, Green” value (green foxtail [6]; [24]) was 70 and the “Plant response rating, Foxtail, Green” value (green foxtail [6]; [25]) was 90. The “Plant response rating, Pigweed, Palmer” value (pigweed, palmer [7]; [24]) was 70, the “Plant response rating, Pigweed, Palmer” value (pigweed, palmer [7]; [25]) was 90 and the “Plant response rating, Oat, Wild” value (oat, wild [8]; [26]) was 80. For the same molecule, the “Oat, Wild plant response rating” value (oat, wild [8]; Test C, 125 g ai/ha) was 50, the “Plant response rating, Ragweed” value (ragweed [9]; [26]) was 60 and the “Ragweed plant response rating” value (ragweed [9]; Test C, 125 g ai/ha) was 0. The “Plant response rating, Ryegrass, Italian” value (ryegrass, Italian [10]; [24]) was 80, the “Plant response rating, Ryegrass, Italian” value (ryegrass, Italian [10]; [25]) was 90 and the “Plant response rating, Pigweed, Palmer” value (pigweed, palmer [11]; [26]) was 90. The “Pigweed, Palmer plant response rating” value (pigweed, palmer [11]; Test C, 125 g ai/ha) was 70, the “Plant response rating, Barnyardgrass (Flood)” value (barnyardgrass [12]) was 0 and the “Plant response rating, Barnyardgrass” value (barnyardgrass [13]) was 90. The “Barnyardgrass plant response rating” value (barnyardgrass [13]) was 60, the “Plant response rating, Kochia” value (kochia [14]; [26]) was 80 and the “Kochia plant response rating” value (kochia [14]; Test C, 125 g ai/ha) was 40. The “Plant response rating, Corn” value (corn [15]; [26]) was 40, the “Corn plant response rating” value (corn [15]; Test C, 125 g ai/ha) was 40 and the “Plant response rating, Sedge, Umbrella (Flood)” value (sedge, umbrella) was 0. For the same molecule, the “Plant response rating, Foxtail, Green” value (green foxtail [16]; [26]) was 100, the “Foxtail, Green plant response rating” value (green foxtail [16]; Test C, 125 g ai/ha) was 100 and the “Plant response rating, Wheat” value (wheat [17]; [26]) was 70. For the same molecule, the “Wheat plant response rating” value (wheat [17]; Test C, 125 g ai/ha) was 20, the “Plant response rating, Horseweed” value (horseweed; [24]) was 10 and the “Plant response rating, Horseweed” value (horseweed; [25]) was 10. The “Plant response rating, Soybean” value (soybean [18]; [26]) was 70, the “Soybean plant response rating” value (soybean [18]; Test C, 125 g ai/ha) was 30 and the “Plant response rating, Oat, Wild” value (oat, wild [19]; [24]) was 60. The “Plant response rating, Oat, Wild” value (oat, wild [19]; [25]) was 80, the “Plant response rating, Galium” value (galium; [24]) was 100 and the “Plant response rating, Galium” value (galium; [25]) was 100. For the same molecule, the “Plant response rating, Kochia” value (kochia [20]; [24]) was 50, the “Plant response rating, Kochia” value (kochia [20]; [25]) was 90 and the “Plant response rating, Ryegrass, Italian” value (ryegrass, Italian [21]; [26]) was 90. The “Ryegrass, Italian plant response rating” value (ryegrass, Italian [21]; Test C, 125 g ai/ha) was 70, the “Plant response rating, Barnyardgrass” value (barnyardgrass [22]; [24]) was 60 and the “Plant response rating, Barnyardgrass” value (barnyardgrass [22]; [25]) was 90. For the same molecule, the “Plant response rating, Rice (Flood)” value (rice) was 0, the “Plant response rating, Corn” value (corn [23]; [24]) was 60 and the “Plant response rating, Corn” value (corn [23]; [25]) was 80.
